Measurements as given in PubChem BioAssay (NCI).
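Protocol summary: plate cells (96-well), add compound at 5 concentrations, incubate 48 h, interpolate endpoints linearly. GI50 = concentration required for 50% inhibition of growth. TGI marks complete inhibition of growth.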

What was measured:
Test in all cases: inhibition of tumour cell growth, NCI panel, 48 h
CAKI-1 renal = test system: CAKI-1 renal
SF-539 CNS = test system: SF-539 CNS
SW-620 colon = test system: SW-620 colon
HL-60(TB) leukemia = test system: HL-60(TB) leukemia
OVCAR-4 ovarian = test system: OVCAR-4 ovarian
SR leukemia = test system: SR leukemia
KM12 colon = test system: KM12 colon
SNB-75 CNS = test system: SNB-75 CNS
A498 renal = test system: A498 renal
OVCAR-5 ovarian = test system: OVCAR-5 ovarian

Structure (SMILES)	TGI (CAKI-1 renal) [µM]	TGI (SF-539 CNS) [µM]	TGI (SW-620 colon) [µM]	TGI (HL-60(TB) leukemia) [µM]	TGI (OVCAR-4 ovarian) [µM]	TGI (SR leukemia) [µM]	TGI (KM12 colon) [µM]	TGI (SNB-75 CNS) [µM]	TGI (A498 renal) [µM]	TGI (OVCAR-5 ovarian) [µM]	GI50 (HL-60(TB) leukemia) [µM]	GI50 (SR leukemia) [µM]	GI50 (CAKI-1 renal) [µM]	GI50 (SF-539 CNS) [µM]	GI50 (SW-620 colon) [µM]	GI50 (OVCAR-4 ovarian) [µM]	GI50 (KM12 colon) [µM]	GI50 (SNB-75 CNS) [µM]	GI50 (A498 renal) [µM]	GI50 (OVCAR-5 ovarian) [µM]
S=C1C(=Nc2ccccc2)N(c2ccccc2)/C(=N\c2ccccn2)N1c1ccccc1	29	20.9	27.9	> 100	29.5	60.8	25.5	28.3	30.4	29.9										
O=C1OC2(C(F)(F)F)Oc3ccccc3CN2C12CCCCC2 (centres undefined)	56.1	> 100	> 100	40.5	> 100	74.8	90.8	59.1	> 100	> 100										
Nc1ccc(-c2nc3cc(F)ccc3s2)cc1I	72.5	29.8	> 100	> 100	> 100	> 59.5	> 100	33.8	31.2	43										
CCOC(=O)C1=C(C)C(C(=O)OC)/C(=C/c2cccc3cccnc23)C1=O (centres undefined)	> 10	> 10	> 10	> 10	> 10	> 10	> 10	> 10	> 10	> 10										
O=c1[nH]c2cc3cccnc3c(Cl)c2nc1C(F)(F)F	65.4	> 100	> 100	> 100	83	> 100	63.7	90.1	> 100	> 100										
O=C1C=C2CO[C@H]3OC[C@H](O)[C@@H]1[C@@H]23	89		> 100	76.1		63.1	> 100	> 100	> 100	> 100										
Cc1ccc(C)c(COCCOCn2cc(Br)c(N)nc2=O)c1	> 100	> 100	> 100	> 100		> 100	> 100	> 100	> 100	> 100										
C=C1C(=O)O[C@H]2C/C(C)=C/CC/C(C)=C/CC[C@@](C)(O)[C@@H](I)C[C@@H]12	22.4	12.3	19.8	14.6	15.4	11.8	18.5	25.1	32	30.2										
Cc1cc(N=Cc2c(CO)cnc(C)c2O)c(N=Cc2c(CO)cnc(C)c2O)cc1C.[Zn]	> 100	> 100	> 100	> 100	> 100	> 100	> 100	> 100	> 100	> 100	> 100	> 100								
Cc1ccc(-n2c(O)c3c(N)n[nH]c3c(C#N)c2=O)cc1	> 100	> 100	> 100	> 100	> 100	> 100	> 100	> 100	> 100	> 100										
COCN1CCN=c2c1c1c3c(c4ccccc4n23)CCC1	> 100	> 100	> 100	> 100	> 100	> 100	> 100	> 100	> 100	> 100										
Cc1cc(Nc2ccc(N=Nc3ccc(O)c4ncccc34)cc2)nc(C)n1	71	20.6	> 66.5	16.5	71.7	> 100	33.3	43.6	46.1	> 87.9										
O=c1c2ccccc2n2nnc3ccc(NCCCNCCNCCCNc4ccc5nnn6c7ccccc7c(=O)c4c56)c1c32	12.8	8.46	> 22.6	23.5	21	> 50	> 22.5	> 27.2	> 37	18.1										
Cn1c(-c2ccc[se]2)ccc1-c1ccc(CO)[se]1	< 0.0332	> 100	> 100	> 100	> 100	53.5	> 100	> 79.9	0.14											
OCC(Cn1cncn1)(c1ccc(F)cc1F)n1cncn1 (centres undefined)	> 100	> 100	> 100	> 100		> 100	> 100	> 100	> 100	> 100										
S=c1nc2[nH]c3ccc(Br)cc3c2n[nH]1	> 100	> 100	> 100	50.5	> 100	69.3	> 100	94.9	> 100	> 100										
CC(NC1=NCCO1)c1cccc([N+](=O)[O-])c1 (centres undefined)	> 100	> 100	> 100	> 100	> 100	> 100	> 100	> 100	> 100	> 100										

Structure (SMILES)	TGI (CAKI-1 renal) [µM]	TGI (SF-539 CNS) [µM]	TGI (SW-620 colon) [µM]	TGI (HL-60(TB) leukemia) [µM]	TGI (OVCAR-4 ovarian) [µM]	TGI (SR leukemia) [µM]	TGI (KM12 colon) [µM]	TGI (SNB-75 CNS) [µM]	TGI (A498 renal) [µM]	TGI (OVCAR-5 ovarian) [µM]	GI50 (HL-60(TB) leukemia) [µM]	GI50 (SR leukemia) [µM]	GI50 (CAKI-1 renal) [µM]	GI50 (SF-539 CNS) [µM]	GI50 (SW-620 colon) [µM]	GI50 (OVCAR-4 ovarian) [µM]	GI50 (KM12 colon) [µM]	GI50 (SNB-75 CNS) [µM]	GI50 (A498 renal) [µM]	GI50 (OVCAR-5 ovarian) [µM]
O=C(Nc1nnc(-c2ccccc2)o1)C(SC(=S)N1CCOCC1)c1ccccc1 (centres undefined)	> 100	> 100	> 100	36.3	> 100	83.7	> 100	> 100	89.6	88.8										
O=C(OCCN1CCCCC1)C(c1ccccc1)C1(O)CCSCC1 (centres undefined)	> 100	> 100	> 100	> 100	> 100	> 100	> 100	> 100	> 100	> 100										
C=CC(C)(C)N[C@@H](C(=O)N1CCC[C@H]1c1nc(-c2nc(C(=O)OCC=C(C)C)c(C)o2)c(C)o1)C(C)C	> 100	38.3	53.8	93.9	71.4	40.6	60.3	> 100	39.4	> 100										
CC(C)[C@H]1NC(=O)[C@H]2N=C(O[C@@H]2C)[C@@H]2CCCN2C(=O)[C@H](Cc2ccccc2)NC(=O)[C@@H]2CSC(=N2)[C@@H](Cc2ccccc2)NC(=O)[C@@H]2CSC1=N2	> 100	> 100	> 100	> 100	> 100	> 100	> 100		> 100	> 100										
COc1cc(/C=C2\N=C(c3ccccc3)N(/N=C3\C(=O)Nc4ccccc43)C2=O)cc(OC)c1OC	> 100	> 100	> 100	> 100	> 100	> 100	> 100	> 100	> 100	> 100										
O=c1[nH]c(=O)n(COCc2ccccc2)c2ccc([N+](=O)[O-])cc12	> 100	> 100	> 100	> 100	> 100	> 100	> 100	> 100	> 100	> 100										
O=C(CN1CCCCC1)c1ccc2c(c1)Sc1ccccc1O2	37.2	30.6	39.1	58.1	27.5	75.1	30.1	24.2	39.3	30										
Fc1ccc(C2CC(c3cccc(Nc4ccncc4)c3)=NN2c2cc(Cl)cc(Cl)c2)cc1 (centres undefined)	2.92	3.11	3.29	5.14	3.23	4.92	3.26	2.91	2.6	3.16	2.25	2.06	1.54	1.64	1.75	1.77	1.76	1.31	1.17	1.73
N#CC(C#N)=Cc1c(O)ccc2ccccc12	29.1	29.1	34.5	15.7	43.6	13.6	33.3	17.9	31.1	31.7										
O=C1CCC2(CC1CCSc1ccccc1)OCCO2 (centres undefined)	> 100	> 100	> 100	> 100	> 100	> 100	> 100	> 100	> 100	> 100										
O=c1[nH]c2ccccc2nc1/C=C(\O)C(F)F	> 100	> 100	> 100	> 100	> 100	> 100	> 100		> 100	> 100										
O=c1[nH]c(=O)n(COCc2ccccc2)c2ccc(Br)cc12	> 100	> 100	> 100	> 100	> 100	> 100	> 100	> 100	> 100	> 100										
Cc1cccc2nc3cccc(C(=O)NCCC[N+](C)(CCCNC(=O)c4cccc5nc6cccc(C)c6nc45)Cc4c([N+](=O)[O-])ncn4C)c3nc12	> 1100	9.07	> 1100		> 1100	> 1100	> 1100	> 1100	> 1100		48.6		107	1.59	49.3	14.8	17.5		> 1100	
O=C(NC1(C(=O)NNc2nnc(-c3ccccc3)c(-c3ccccc3)n2)C(c2ccccc2)C(c2ccccc2)=NN1c1ccccc1)c1ccccc1 (centres undefined)	> 100	> 100	> 100	> 100	> 100	> 100	> 100	> 100	> 100	> 100										
O=C(NCCCCNCCCNC(=O)c1ccccc1)c1ccccc1		> 100	> 100	> 100	> 100	> 100	> 100	> 100	> 100	> 100										
COC(=O)c1ccc(CCc2cc(O)ccc2O)cc1	12.9	19.6	29.7	5.96	24.4	> 21	27.5	21.2	> 96.7	50.7										
